Measured values from ChEMBL document CHEMBL1156829 (Proc Natl Acad Sci U S A, 2008).

Legend:
Plasmodium falciparum [1] = test: NOVARTIS: Inhibition of Plasmodium falciparum 3D7 (drug-susceptible) proliferation in erythrocyte-based infection assay; format: functional, organism-based; conditions: Plasmodium falciparum, 3D7
Plasmodium falciparum [2] = test: NOVARTIS: Inhibition of Plasmodium falciparum W2 (drug-resistant) proliferation in erythrocyte-based infection assay; format: functional, organism-based; conditions: Plasmodium falciparum, W2; read-out: EC50
[3] = NOVARTIS: Cytotoxicity against human hepatocellular carcinoma cell line (Huh7); format: toxicity, cell-based, Huh-7; conditions: Huh7 cells (hepatocellular carcinoma cell line)

Row | SMILES | EC50 (Plasmodium falciparum [1]) [µM] | EC50 (Plasmodium falciparum [2]) [µM] | CC50 [3] [µM]
1 | COc1ccc(C2C3=C(O)CC(C)(C)CC3=Nc3[nH]nc(C)c32)cc1 (configuration not stated) | > 3.32 | > 12.5 | > 100
2 | COC(=O)C1=C(C)N/C(=C\c2cc(C)n(-c3cc(C)ccc3OC)c2C)C1=O | 0.4 | > 1.25 | > 10
3 | Cc1[nH]n(-c2ccccc2)c(=O)c1C(=O)CN(C(=O)c1ccc2c(c1)OCO2)C(C)C | > 0.469 | > 1.25 | > 10
4 | O=C(CNC(=O)c1ccccc1)Oc1ccc(Cl)cc1 | 0.537 | > 1.25 | > 10
5 | O=S1(=O)CCC(O)c2ccsc21 (configuration not stated) | 4.18 | > 12.5 | > 100
6 | Oc1c2c(nc3cc(-c4ccc(Cl)cc4)nn13)CCCC2 | 6.48 | > 12.5 | > 100
7 | Cc1ccnc(Nc2nc(-c3ccc(Cl)cc3)cs2)c1 | 4.51 | > 12.5 | > 100
8 | O=C(Nc1cccnc1)c1cc(-c2cccnc2)nc2ccc(Cl)cc12 | 3.96 | > 12.5 | > 100
9 | COc1ccc(C2N=C(N)N=C(N)N2c2ccc(Cl)cc2)cc1OC (configuration not stated) | 0.326 | > 1.25 | > 10
10 | CCn1c2cc(C)sc2c2cnn(CC(=O)Nc3c(C)nn(C)c3C)c(=O)c21 | > 0.749 | > 1.25 | > 10
11 | COc1ccccc1N1CCN(c2c3c(nc4nncn24)CCC3)CC1 | > 0.736 | > 1.25 | > 10
12 | CCOC(=O)C1=C(C)N(c2ccc(OCC)cc2)C(=O)C1=Cc1ccc(C(C)C)cc1 | 3.5 | > 12.5 | > 100
13 | Cn1nc(C(C)(C)C)cc1C(=O)N1CCCN1C(=O)CNC(=O)c1ccco1 | > 0.335 | > 1.25 | > 10
14 | Cc1ccc(C(=O)CSc2nc(N)c(C#N)c(-c3cccs3)c2C#N)cc1 | > 5 | > 12.5 | > 100
15 | C[N+]1(CCOC(=O)CCC(=O)OCC[N+]2(C)CCCCCC2)CCCCCC1 | > 0.479 | > 1.25 | > 10
16 | COc1ccc2c(c1)C(C)=CC(C)(C)N2C(=O)CSc1nnc(-c2ccc(C)cc2)o1 | 0.467 | > 1.25 | > 10
17 | COC(=O)c1c(-c2c(F)cccc2Cl)noc1/C=C/Nc1ccc(OC)cc1 | 0.427 | > 1.25 | > 10
18 | CCN1CCN(c2cc(C)c3cc(NC(=O)/C=C/c4cc(OC)ccc4OC)ccc3n2)CC1 | 0.397 | > 1.25 | > 10
19 | N#CC(C#N)C(/C(Sc1ccc([N+](=O)[O-])cc1)=C(/O)c1ccccc1)c1cccs1 (configuration not stated) | > 0.403 | > 1.25 | > 10
20 | COc1ccc(-c2ccc(C=NNC(=O)CNC(=O)c3ccc4c(c3)OCO4)o2)cc1Cl | > 0.375 | > 1.25 | > 10
21 | O=C(Nc1ccc(-c2nnc(-c3ccccc3)o2)cc1)c1ccc(Br)cc1 | 0.75 | > 1.25 | > 10
22 | O=C(NCCc1ccccc1)c1cnc(NCCCN2CCCC2)nc1Nc1ccccc1 | 0.541 | > 1.25 | > 10
23 | CC1CCc2c(sc(NC(=O)c3ccccc3F)c2C(=O)NCc2ccccc2)C1 (configuration not stated) | > 0.699 | > 1.25 | > 10

Row | SMILES | EC50 (Plasmodium falciparum [1]) [µM] | EC50 (Plasmodium falciparum [2]) [µM] | CC50 [3] [µM]
24 | CCC(=O)N=c1sc2cc([N+](=O)[O-])ccc2n1CCOC | > 0.686 | > 1.25 | > 10
25 | Cc1cc(C)n2nc(-c3ccc(Cl)cc3)cc2n1 | > 0.685 | > 1.25 | > 10
26 | O=C(CCNS(=O)(=O)c1ccc(Br)s1)N1CCc2ccccc2C1 | > 5.6 | > 12.5 | > 100
27 | CCc1c(C#N)c(N)nc2sc(C(=O)c3ccc(Br)cc3)c(N)c12 | 5.46 | > 12.5 | > 100
28 | CCCC(C(=O)NCCC(C)C)N(C(=O)c1snc(C(N)=O)c1N)c1ccc(C(C)C)cc1 (configuration not stated) | 5.44 | > 12.5 | > 100
29 | CCOC(=O)N1CCN(C(=O)CSc2nc(-c3ccc(Cl)cc3)cn2-c2ccc(C)cc2)CC1 | 0.71 | > 1.25 | > 10
30 | CN(C)c1nc(Cl)nc(N(C#N)CCOc2ccccc2)n1 | > 0.703 | > 1.25 | > 10
31 | CC(C)CNC(=O)c1cnc(NCCC2CCCN2C)nc1NCCc1ccccc1 (configuration not stated) | 0.699 | > 1.25 | > 10
32 | CC(C)C1N=C2c3ccccc3N=C(SCC(=O)Nc3cc(C(F)(F)F)ccc3Cl)N2C1=O (configuration not stated) | 5.91 | > 12.5 | > 100
33 | CCCc1cc2c(=O)c(-c3ccc4c(c3)OCO4)c(CC)oc2cc1OC(C)C | 5.84 | > 12.5 | > 100
34 | O=C(NCc1ccccc1)c1cnc(NCCCN2CCCC2)nc1NCC1CCCCC1 | 0.733 | > 1.25 | > 10
35 | CCOc1ccc2nc(Sc3nc(Nc4cccc(C)c4)nc(Nc4cccc(C)c4)n3)sc2c1 | 5.81 | > 12.5 | > 100
36 | CC(C)CNc1nc(NCCCN2CCCC2)ncc1C(=O)NCCc1ccccc1 | 0.719 | > 1.25 | > 10
37 | Cc1nccn1CC(C)C(=O)N1CCCC(n2nc(-c3cccs3)ccc2=O)C1 (configuration not stated) | > 0.62 | > 1.25 | > 10
38 | CC(C)CNc1nc(NCCCN)ncc1C(=O)NCCc1ccccc1 | 0.598 | > 1.25 | > 10
39 | CCCCN(CC)C(=O)CSc1nc2ccccc2c(=O)n1Cc1ccco1 | > 0.594 | > 1.25 | > 10
40 | O=C(NCc1ccccc1)c1cnc(NCCCN2CCCC2)nc1NCCc1ccccc1 | 0.648 | > 1.25 | > 10
41 | CCCCCCC(=O)NC1CCC(Nc2ccnc3cc(Cl)ccc23)CC1 (configuration not stated) | 0.63 | > 1.25 | > 10
42 | CCOc1ccc2nc(SCc3nc(N)nc(N4CCOCC4)n3)sc2c1 | > 0.627 | > 1.25 | > 10
43 | CCOC(=O)c1c(C)[nH]c(C)c1S(=O)(=O)N1CCCC(C(=O)N2CCN(c3cccc(C)c3C)CC2)C1 (configuration not stated) | 5.26 | > 12.5 | > 100
44 | COC(=O)c1cc(NC(=S)NC(=O)c2c(OC)cccc2OC)cc(C(=O)OC)c1 | 5.17 | > 12.5 | > 100
45 | COCCCNc1nc2nonc2nc1N(C)C1CCOCC1 | > 0.682 | > 1.25 | > 10
46 | Cc1ccnc(NC(c2ccc3ccccc3c2)c2ccc3cccnc3c2O)c1 (configuration not stated) | 6.75 | > 12.5 | > 100

Row | SMILES | EC50 (Plasmodium falciparum [1]) [µM] | EC50 (Plasmodium falciparum [2]) [µM] | CC50 [3] [µM]
47 | O=c1c(=O)n(Cc2cccc(C(F)(F)F)c2)ccn1CCc1ccccc1 | > 0.673 | > 1.25 | > 10
48 | Cc1ccc(C(=O)NCCNC(=O)CN2CCOCC2)cc1 | > 0.671 | > 1.25 | > 10
49 | CN1CCCC1CCNc1ncc(C(=O)NCc2ccccc2)c(NC2CCCC2)n1 (configuration not stated) | 0.658 | > 1.25 | > 10
50 | COc1cc(C(=O)Nc2nnc(-c3ccccc3)o2)cc(OC)c1OC | 5.18 | > 12.5 | > 100
51 | COC(=O)c1ccc(N2C(=O)C3C(C2=O)C2(c4ccccc4)C(=O)C3(c3ccccc3)C(c3ccc(OC)cc3)=C2c2ccc(OC)cc2)cc1 (configuration not stated) | 4.83 | > 12.5 | > 100
52 | OC(COc1ccc(OCC(O)CN2CCN(C3c4ccccc4-c4ccccc43)CC2)cc1)CN1CCN(C2c3ccccc3-c3ccccc32)CC1 (configuration not stated) | > 6.19 | > 12.5 | > 100
53 | COc1cccc2cc(-c3nc(-c4ccccc4)cs3)c(=O)oc12 | > 0.611 | > 1.25 | > 10
54 | CC1=NNC(=O)C1C(c1ccc(Cl)cc1Cl)C1C(=O)NN=C1C (configuration not stated) | > 0.484 | > 1.25 | > 10
55 | CCCN1CCC(c2nc(N3CCOCC3)ncc2-c2cc(C)no2)CC1 | > 0.433 | > 1.25 | > 10
56 | CN(C)CCNC(=O)c1c[nH]c2ccc(S(=O)(=O)N3CCc4ccccc43)cc2c1=O | 0.418 | > 1.25 | > 10
57 | COC(=O)c1cn2c(=O)c3ccccc3nc2c2ccccc12 | > 0.385 | > 1.25 | > 10
58 | O=C1CSC(=S)N1c1cccc(Cl)c1 | 6.87 | > 12.5 | > 100
59 | O=C1c2cccc(N3CCN(Cc4cccn4-c4nccs4)CC3)c2C(=O)N1Cc1ccc(Cl)cc1 | 5.47 | > 12.5 | > 100
60 | Cc1ccc(NC(=O)c2nc[nH]c2C(=O)Nc2nc3ccccc3[nH]2)c(C)c1 | 7.29 | > 12.5 | > 100
61 | O=C(CCCOc1ccc(Cl)cc1Cl)NCCCn1ccnc1 | 0.48 | > 1.25 | > 10
62 | COc1ccc(OC)c(NC2=C(Cl)C(=O)N(c3ccc(C)c(Cl)c3)C2=O)c1 | 5.07 | > 12.5 | > 100
63 | COc1ccc(C(=O)n2nc(N)c3cc4ccc(C)cc4nc32)cc1[N+](=O)[O-] | > 5.42 | > 12.5 | > 100
64 | Cc1ccc(S(=O)(=O)NNC(=O)C2CCC(c3ccccc3)CC2)c2nsnc12 (configuration not stated) | 0.727 | > 1.25 | > 10
65 | Cc1nc(-c2ccncc2)nc(NCCNc2ccc(C(F)(F)F)cn2)c1Cl | 0.714 | > 1.25 | > 10
66 | O=C(c1cnsn1)N1CCCC(COc2cccc(CN3CCC(Cc4ccccc4)CC3)c2)C1 (configuration not stated) | > 3.67 | > 12.5 | > 100
67 | CSc1nc(N)nc(SC2C=CCCC2)c1C#N (configuration not stated) | 7.06 | > 12.5 | > 100
68 | O=C(NCc1cc2cc3c(cc2nc1Cl)OCO3)c1ccco1 | > 0.586 | > 1.25 | > 10
69 | Cc1cccc(-c2ccc(NC(=O)C3CCN(Cc4cnc(C)nc4)CC3)cc2)c1 | > 6.88 | > 12.5 | > 100
